Assay results taken from paper PMC10408569, “Recruitment of hexahydroquinoline as anticancer scaffold targeting inhibition of wild and mutants EGFR (EGFR^WT, EGFR^T790M, and EGFR^L858R)” (Journal of Enzyme Inhibition and Medicinal Chemistry, 2023).

How the values were obtained:
Experiment in all cases: NCI-60 anticancer screening (SRB)
Type in all cases: cell-based
SK-MEL-28 = conditions: Homo sapiens; SK-MEL-28, melanoma; one dose 10 μM; read-out: Growth Inhibition Percentage (GI %)
RPMI-8226 = conditions: Homo sapiens; RPMI-8226, leukemia; one dose 10 μM; read-out: Growth Inhibition Percentage (GI %)
SW-620 = conditions: Homo sapiens; SW-620, colon cancer; one dose 10 μM; read-out: Growth Inhibition Percentage (GI %)
CAKI-1 = conditions: Homo sapiens; CAKI-1, renal cancer; one dose 10 μM; read-out: Growth Inhibition Percentage (GI %)
EKVX = conditions: Homo sapiens, NSC lung cancer, one dose 10 μM, read-out: Growth Inhibition Percentage (GI %)
U251 = conditions: Homo sapiens, U-251; U251, CNS cancer; one dose 10 μM; read-out: Growth Inhibition Percentage (GI %)
MDA-MB-468 = conditions: Homo sapiens; MDA-MB-468, breast cancer; one dose 10 μM; read-out: Growth Inhibition Percentage (GI %)
TK-10 = conditions: Homo sapiens; TK-10, renal cancer; one dose 10 μM; read-out: Growth Inhibition Percentage (GI %)
SK-OV-3 = conditions: Homo sapiens; SK-OV-3, ovarian cancer; one dose 10 μM; read-out: Growth Inhibition Percentage (GI %)
MDA-MB-231 = conditions: Homo sapiens; MDA-MB-231, breast cancer; one dose 10 μM; read-out: Growth Inhibition Percentage (GI %)
NCI-H226 = conditions: Homo sapiens; NCI-H226, NSC lung cancer; one dose 10 μM; read-out: Growth Inhibition Percentage (GI %)
BT-549 = conditions: Homo sapiens; BT-549, breast cancer; one dose 10 μM; read-out: Growth Inhibition Percentage (GI %)
SN 12C = conditions: Homo sapiens, SN12C; SN 12C, renal cancer; one dose 10 μM; read-out: Growth Inhibition Percentage (GI %)
SK-MEL-2 = conditions: Homo sapiens; SK-MEL-2, melanoma; one dose 10 μM; read-out: Growth Inhibition Percentage (GI %)
KM 12 = conditions: Homo sapiens, KM12; KM 12, colon cancer; one dose 10 μM; read-out: Growth Inhibition Percentage (GI %)
T-47D = conditions: Homo sapiens, T47D, breast cancer, one dose 10 μM, read-out: Growth Inhibition Percentage (GI %)
HOP-92 = conditions: Homo sapiens; HOP-92, NSC lung cancer; one dose 10 μM; read-out: Growth Inhibition Percentage (GI %)
MALME-3M = conditions: Homo sapiens, melanoma, one dose 10 μM, read-out: Growth Inhibition Percentage (GI %)
ACHN = conditions: Homo sapiens, renal cancer, one dose 10 μM, read-out: Growth Inhibition Percentage (GI %)
SK-MEL-5 = conditions: Homo sapiens; SK-MEL-5, melanoma; one dose 10 μM; read-out: Growth Inhibition Percentage (GI %)
OVCAR-3 = conditions: Homo sapiens; OVCAR-3, ovarian cancer; one dose 10 μM; read-out: Growth Inhibition Percentage (GI %)
A498 = conditions: Homo sapiens; A498, renal cancer; one dose 10 μM; read-out: Growth Inhibition Percentage (GI %)
NCI-H322M = conditions: Homo sapiens, NSC lung cancer, one dose 10 μM, read-out: Growth Inhibition Percentage (GI %)
SR = conditions: Homo sapiens, leukemia, one dose 10 μM, read-out: Growth Inhibition Percentage (GI %)
CCRF-CEM = conditions: Homo sapiens, leukemia, one dose 10 μM, read-out: Growth Inhibition Percentage (GI %)
SNB-19 = conditions: Homo sapiens; SNB-19, CNS cancer; one dose 10 μM; read-out: Growth Inhibition Percentage (GI %)
OVCAR-5 = conditions: Homo sapiens; OVCAR-5, ovarian cancer; one dose 10 μM; read-out: Growth Inhibition Percentage (GI %)
A549/ATCC = conditions: Homo sapiens; A549/ATCC, NSC lung cancer; one dose 10 μM; read-out: Growth Inhibition Percentage (GI %)
LOX IMVI = conditions: Homo sapiens, melanoma, one dose 10 μM, read-out: Growth Inhibition Percentage (GI %)
SNB-75 = conditions: Homo sapiens; SNB-75, CNS cancer; one dose 10 μM; read-out: Growth Inhibition Percentage (GI %)
HCC-2998 = conditions: Homo sapiens; HCC-2998, colon cancer; one dose 10 μM; read-out: Growth Inhibition Percentage (GI %)
OVCAR-4 = conditions: Homo sapiens; OVCAR-4, ovarian cancer; one dose 10 μM; read-out: Growth Inhibition Percentage (GI %)
786-0 = conditions: Homo sapiens; 786-0, renal cancer; one dose 10 μM; read-out: Growth Inhibition Percentage (GI %)

CCOC(=O)C1=C(N)N(c2ccc(C)cc2)C2=C(C(=O)CC(C)(C)C2)C1c1ccc(OC)cc1 (racemic) [8g, (±)-Ethyl 2-amino-4–(4-methoxyphenyl)-7,7-dimethyl-1–(4-methylphenyl)-5-oxo-1,4,5,6,7,8-hexahydroquinoline-3-carboxylate]
inhibition at 10 µM (SK-MEL-28): < 10%
inhibition at 10 µM (RPMI-8226): < 10%
inhibition at 10 µM (SW-620): < 10%
inhibition at 10 µM (CAKI-1): < 10%
inhibition at 10 µM (EKVX): < 10%
inhibition at 10 µM (U251): < 10%
inhibition at 10 µM (MDA-MB-468): < 10%
inhibition at 10 µM (TK-10): < 10%
inhibition at 10 µM (SK-OV-3): < 10%
inhibition at 10 µM (MDA-MB-231): < 10%
inhibition at 10 µM (NCI-H226): < 10%
inhibition at 10 µM (BT-549): < 10%
inhibition at 10 µM (SN 12C): < 10%
inhibition at 10 µM (SK-MEL-2): < 10%
inhibition at 10 µM (KM 12): < 10%
inhibition at 10 µM (T-47D): < 10%
inhibition at 10 µM (HOP-92): < 10%
inhibition at 10 µM (MALME-3M): < 10%
inhibition at 10 µM (ACHN): < 10%
inhibition at 10 µM (SK-MEL-5): < 10%
inhibition at 10 µM (OVCAR-3): < 10%
inhibition at 10 µM (A498): < 10%
inhibition at 10 µM (NCI-H322M): < 10%
inhibition at 10 µM (SR): < 10%
inhibition at 10 µM (CCRF-CEM): < 10%
inhibition at 10 µM (SNB-19): < 10%
inhibition at 10 µM (OVCAR-5): < 10%
inhibition at 10 µM (A549/ATCC): < 10%
inhibition at 10 µM (LOX IMVI): < 10%
inhibition at 10 µM (SNB-75): 13%
inhibition at 10 µM (HCC-2998): < 10%
inhibition at 10 µM (OVCAR-4): < 10%
inhibition at 10 µM (786-0): < 10%

CCOC(=O)C1=C(N)N(c2ccc(C)cc2)C2=C(C(=O)CC(C)(C)C2)C1c1ccc([N+](=O)[O-])cc1 (racemic) [8j, (±)-Ethyl 2-amino-7,7-dimethyl-1–(4-methylphenyl)-4–(4-nitrophenyl)-5-oxo-1,4,5,6,7,8-hexahydroquinoline-3-carboxylate]
inhibition at 10 µM (SK-MEL-28): < 10%
inhibition at 10 µM (RPMI-8226): < 10%
inhibition at 10 µM (SW-620): < 10%
inhibition at 10 µM (CAKI-1): < 10%
inhibition at 10 µM (EKVX): < 10%
inhibition at 10 µM (U251): < 10%
inhibition at 10 µM (MDA-MB-468): < 10%
inhibition at 10 µM (TK-10): < 10%
inhibition at 10 µM (SK-OV-3): < 10%
inhibition at 10 µM (MDA-MB-231): < 10%
inhibition at 10 µM (NCI-H226): < 10%
inhibition at 10 µM (BT-549): < 10%
inhibition at 10 µM (SN 12C): < 10%
inhibition at 10 µM (SK-MEL-2): < 10%
inhibition at 10 µM (KM 12): < 10%
inhibition at 10 µM (T-47D): < 10%
inhibition at 10 µM (HOP-92): < 10%
inhibition at 10 µM (MALME-3M): < 10%
inhibition at 10 µM (ACHN): < 10%
inhibition at 10 µM (SK-MEL-5): < 10%
inhibition at 10 µM (OVCAR-3): < 10%
inhibition at 10 µM (A498): < 10%
inhibition at 10 µM (NCI-H322M): < 10%
inhibition at 10 µM (SR): < 10%
inhibition at 10 µM (CCRF-CEM): < 10%
inhibition at 10 µM (SNB-19): < 10%
inhibition at 10 µM (OVCAR-5): < 10%
inhibition at 10 µM (A549/ATCC): < 10%
inhibition at 10 µM (LOX IMVI): < 10%
inhibition at 10 µM (SNB-75): < 10%
inhibition at 10 µM (HCC-2998): < 10%
inhibition at 10 µM (OVCAR-4): < 10%
inhibition at 10 µM (786-0): < 10%

CCOC(=O)C1=C(N)N(c2ccc(Cl)cc2)C2=C(C(=O)CC(C)(C)C2)C1c1ccccn1 (racemic) [12c, (±)-Ethyl 2-amino-1–(4-chlorophenyl)-7,7-dimethyl-5-oxo-4-(pyridine-2-yl)-1,4,5,6,7,8-hexahydroquinoline-3-carboxylate]
inhibition at 10 µM (SK-MEL-28): < 10%
inhibition at 10 µM (RPMI-8226): < 10%
inhibition at 10 µM (SW-620): < 10%
inhibition at 10 µM (CAKI-1): 11%
inhibition at 10 µM (EKVX): < 10%
inhibition at 10 µM (U251): < 10%
inhibition at 10 µM (MDA-MB-468): < 10%
inhibition at 10 µM (TK-10): < 10%
inhibition at 10 µM (SK-OV-3): < 10%
inhibition at 10 µM (MDA-MB-231): < 10%
inhibition at 10 µM (NCI-H226): < 10%
inhibition at 10 µM (BT-549): < 10%
inhibition at 10 µM (SN 12C): < 10%
inhibition at 10 µM (SK-MEL-2): < 10%
inhibition at 10 µM (KM 12): < 10%
inhibition at 10 µM (T-47D): < 10%
inhibition at 10 µM (HOP-92): < 10%
inhibition at 10 µM (MALME-3M): < 10%
inhibition at 10 µM (ACHN): < 10%
inhibition at 10 µM (SK-MEL-5): 13%
inhibition at 10 µM (OVCAR-3): < 10%
inhibition at 10 µM (A498): < 10%
inhibition at 10 µM (NCI-H322M): < 10%
inhibition at 10 µM (SR): < 10%
inhibition at 10 µM (CCRF-CEM): < 10%
inhibition at 10 µM (SNB-19): < 10%
inhibition at 10 µM (OVCAR-5): < 10%
inhibition at 10 µM (A549/ATCC): < 10%
inhibition at 10 µM (LOX IMVI): < 10%
inhibition at 10 µM (SNB-75): < 10%
inhibition at 10 µM (HCC-2998): < 10%
inhibition at 10 µM (OVCAR-4): < 10%
inhibition at 10 µM (786-0): < 10%
